# Assay results taken from patent publication US7879826B2, “Derivatives of [2-(8,9-dioxo-2,6-diazabicyclo[5.2.0]non-1(7)-en-2-yl)alkyl]phosphonic acid and methods of making them” (Wyeth LLC, priority 2004, dated 2011).
# Key:
# [1] = system: PGE2-induced thermal hypersensitivity; experiment: Prostaglandin E2-induced thermal hypersensitivity (warm-water tail withdrawal); type: in vivo, Spraque-Dawley rats; settings: rat, 10 mg/kg p.o., single dose; assessed 30 min after PGE2 injection
# Procedure: Individually housed Spraque-Dawley rats had free access to rat chow and water. A 12-h light/12-h dark cycle was in effect (lights on from 6:00 am to 6:00 pm). Animal maintenance and research were conducted in accordance with the guidelines provided by the National Institutes of Health Committee on Laboratory Animal Resources. These subjects were used in the tests below.
# The terminal 10 cm of the tail (rat) was placed into a thermos bottle containing water warmed to 38, 42, 46, 50 or 54° C. The latency in seconds for the animal to remove the tail from the water was used as a measure of nociception. […]
# The ability of the compounds to reverse PGE2-induced thermal hypersensitivity was assessed using a single dose time-course procedure. […] sensitivity was assessed 30 min after PGE2 injection.
# Data Analysis—The temperature that produced a half-maximal increase in the tail-withdrawal latency (i.e., T10) was calculated from each temperature-effect curve. The T10 was determined by interpolation from a line drawn between the point above and the point below 10 sec on the temperature-effect curve. […] Reversal of thermal hypersensitivity was defined as a return to baseline of the temperature-effect curve and the T10 value and was calculated according to the following equation: […]
structure (smiles),measurement,setting,value
"CCOC(=O)c1cccc(OP(=O)(CCN2CCCNc3c2c(=O)c3=O)Oc2cccc(C(=O)OCC)c2)c1 [Example 1, Diethyl 3,3′-[({2-[8,9-dioxo-2,6-diazabicyclo[5.2.0]non-1(7)-en-2-yl]ethyl}phosphoryl)bis(oxy)]dibenzoate]",reversing PGE2-induced thermal hypersensitivity (% MPE),[1],40%
same,melting point,,116 to 117 °C
